Test results as given in patent publication US20230348454A1, “COMPOUNDS AS MODULATORS OF BIS-PHOSPHOGLYCERATE MUTASE FOR THE TREATMENT OF SICKLE CELL DISEASE” (Genzyme Corporation, priority 2020, published 2023).

Molecular target: T1, hBPGM (Homo sapiens, UniProt P07738)
T1 sequence (P07738 1-259): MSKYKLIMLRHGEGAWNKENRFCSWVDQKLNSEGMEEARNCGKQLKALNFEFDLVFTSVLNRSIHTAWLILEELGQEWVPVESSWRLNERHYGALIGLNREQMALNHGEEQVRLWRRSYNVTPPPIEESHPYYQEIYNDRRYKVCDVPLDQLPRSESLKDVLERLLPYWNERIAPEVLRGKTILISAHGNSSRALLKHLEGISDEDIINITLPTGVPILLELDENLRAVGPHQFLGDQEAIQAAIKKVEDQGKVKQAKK
Test: BPGM synthase assay
Assay type: biochemical
Settings: Table 6; read-out: huBPGM: synthase Enzyme IC50
Method: The following materials were used in this assay: deionized water; Bisphosphoglycerate mutase (BPGM; Standard Buffer: 50 mM Tris, 0.01% Tween 20, pH 7.4); BPGM Reaction Buffer (50 mM Tris, 0.01% Tween 20, 3.23 mM KH2PO4, pH 7.4); dithiothreitol (DTT; Stock solution: 100 mM in Standard Buffer); 384-Well Black Assay Plate (Corning, P/N 3575); DMSO; BPGM Stock Solution (500 nM in BPGM Standard Buffer); Glyceraldehyde 3-phosphate dehydrogenase (GAPDH; Stock Solution: 40 U/mL in 20 mM Tris-HCL Buffer with 20% Glycerol, 1 mM EDTA, 1 mM DTT); Glyceraldehyde 3-phosphate (GAP; Stock Solution: 20 mM in BPGM Standard Buffer); 3-PG Stock Solution (500 μM in BPGM Standard Buffer); Nicotinamide adenine dinucleotide (NAD; Stock Solution: 50 mM in BPGM Standard Buffer); Koningic Acid (1 mM Stock in DMSO); Resazurin Stock Solution (10 mM in DMSO); Diaphorase Stock Solution (40 U/mL in BPGM Standard Buffer); DTT Reaction Buffer (1 mM DTT in BPGM Reaction Buffer); Enzyme Solution (5 nM BPGM, 0.4 U/mL GAPDH in DTT Reaction Buffer); GAPDH Solution (0.4 U/mL GAPDH in DTT Reaction Buffer); Substrate Solution (2 mM NAD, 20 μM 3PG, 800 μM GAP in DTT Reaction Buffer); and Resazurin Solution (5 U/mL Diaphorase, 500 μM Resazurin in BPGM Standard Buffer).
To the assay plate was added Enzyme Solution (20 uL) to columns 2-22 and 24 of the assay plate. To columns 1 and 23 was added GAPDH Solution (20 uL). A separate compound plate was prepared at the desired concentrations and all wells were normalized with 5% DMSO. The compound plate was incubated for 30 minutes at RT. Next, the substrate solution (20 μL) was dispensed to all reaction wells and the plate was incubated for 60 minutes at RT. Koningic acid (1 μL) was added and the plate was incubated for 10 minutes at RT. During this time period, the NADH fluorescence was read at ex: 360/em: 460. Next, Resazurin Solution (10 μL) was added to all reaction wells and the plate was incubated for 30 minutes at RT. The resorufin fluorescence was then read at ex:544/em:590.

SMILES	IC50 [µM]
Cc1nc(C)c(-c2cccc(-c3cc(F)c4nn[nH]c4c3F)n2)s1 [Example 90]	0.34
Cc1nc(CNC(=O)N2CCC(O)C2)sc1-c1csc(-c2cc(F)c(O)c(F)c2F)n1 (centres unmarked) [Example 92]	2.3
Cc1nc(CNC(=O)C2CCN(C)CC2)sc1-c1csc(-c2cc(F)c(O)c(F)c2F)n1 [Example 93]	9
Cc1nc(COCC(=O)C2CCNCC2)sc1-c1csc(-c2cc(F)c(O)c(F)c2F)n1 [Example 94]	> 25
Cc1nc(CNC(=O)c2ccn(C)n2)sc1-c1csc(-c2cc(F)c(O)c(F)c2F)n1 [Example 106]	0.33
Cc1nc(CNC(=O)N(C)C)sc1-c1csc(-c2cc(F)c3[nH]nnc3c2)n1 [Example 107]	3.2
Cc1nc(CNC(=O)N2CCN(C)CC2)sc1-c1csc(-c2cc(F)c(O)c(F)c2F)n1 [Example 108]	14
Cc1nc(COC(=O)N(C)C)sc1-c1csc(-c2cc(F)c3[nH]nnc3c2)n1 [Example 109]	0.16
Cc1nc(CNC(=O)C(C)(C)C)sc1-c1csc(-c2cc(F)c(O)c(F)c2F)n1 [Example 111]	0.57
Cc1nc(CNC(=O)N(C)C)sc1-c1csc(-c2cc(F)c(O)c(F)c2F)n1 [Example 112]	0.65
Cc1nc(CNC(=O)c2cnn(C)c2)sc1-c1csc(-c2cc(F)c(O)c(F)c2F)n1 [Example 113]	0.53
Cc1nc(C)c(-c2csc(-c3cc(F)c4[nH]nnc4c3)n2)s1 [Example 114]	1.2
Cc1nc(COCC(=O)N2CCNCC2)sc1-c1csc(-c2cc(F)c(O)c(F)c2F)n1 [Example 115]	4.4
Cc1nc(CO)sc1-c1csc(-c2cc(F)c(O)c(F)c2F)n1 [Example 116]	6.5
Cc1nc(C)c(-c2csc(-c3cc(F)c(O)c(F)c3F)n2)s1 [Example 119]	2.9
Cc1nc(COCC(=O)N2CCN(C)CC2)sc1-c1csc(-c2cc(F)c(O)c(F)c2F)n1 [Example 123]	1.6
Cc1nc(COCC(=O)N2CCC(O)C2)sc1-c1csc(-c2cc(F)c(O)c(F)c2F)n1 (centres unmarked) [Example 124]	6.3
Cc1nc(CNC(=O)C(C)(C)C)sc1-c1cccc(-c2cc(F)c(O)c(F)c2F)c1 [Example 146]	13

SMILES	IC50 [µM]
Cc1nc(C)c(-c2csc(-c3cc(O)c(NS(=O)(=O)c4ccccc4)cc3F)n2)s1 [Example 180]	> 25
Cc1nc(CNC(=O)C2CCN(C)CC2)sc1-c1csc(-c2cc(F)c3[nH]nnc3c2)n1 [Example 182]	1.9
COC(=O)NCc1nc(C)c(-c2csc(-c3cc(O)c(NS(C)(=O)=O)cc3F)n2)s1 [Example 183]	> 25
COC(=O)NCc1nc(C)c(-c2csc(-c3cc(O)c(-c4nnn[nH]4)cc3F)c2)s1 [Example 184]	0.25
COC(=O)NCc1nc(C)c(-c2csc(-c3cnc(O)nc3)n2)s1 [Example 193]	23
COC(=O)NCc1nc(C)c(-c2csc(-c3cnc(O)c(F)c3)n2)s1 [Example 200]	12
COC(=O)NCc1nc(C)c(-c2csc(-c3cc(O)c(S(N)(=O)=O)cc3F)n2)s1 [Example 202]	> 25
COC(=O)NCc1nc(C)c(-c2csc(-c3ccc(C4SC(=O)NC4=O)cc3)n2)s1 (centres unmarked) [Example 204]	> 25
Cc1nc(Cc2ccccn2)sc1-c1cccc(-c2ccc(C(=O)NS(=O)(=O)c3ccccc3)cc2)c1 [Example 211]	0.74
Cc1nc(C)c(COc2cc(F)c3nn[nH]c3c2F)s1 [Example 215]	> 25
Cc1ncsc1-c1cccc(-c2cc(F)c3[nH]nnc3c2F)n1 [Example 216]	5.4
Cc1nc(C(=O)NC2CCC(O)CC2)sc1-c1cccc(-c2cc(F)c3[nH]nnc3c2F)n1 (centres unmarked) [Example 217]	0.12
Cc1nc(COCC(C)(C)O)sc1-c1cccc(-c2cc(F)c(O)c(F)c2F)n1 [Example 218]	0.41
Cc1nc(C)c(CCOc2cc(F)c3nn[nH]c3c2F)s1 [Example 222]	> 25
Cc1nc(CNC(=O)C(C)(C)C)sc1-c1ccnc(-c2cc(F)c3nn[nH]c3c2F)n1 [Example 223]	0.84
Cc1nc(COCC(C)(C)O)sc1-c1nc(-c2cc(F)c3nn[nH]c3c2F)cs1 [Example 224]	0.03
Cc1nc(CN(C)CC(C)(C)O)sc1-c1cccc(-c2cc(F)c3nn[nH]c3c2F)n1 [Example 225]	0.21

More lines, now with the values ahead:

IC50 [µM]	SMILES
0.64	Cc1nc(CO)sc1-c1cccc(-c2cc(F)c3nn[nH]c3c2F)n1 [Example 91]
0.22	Cc1nc(COc2ncccn2)sc1-c1cccc(-c2ccc(C#N)c(O)c2F)n1 [Example 105]
0.16	Cc1nc(COc2ccccn2)sc1-c1cccc(-c2cc(F)c3nn[nH]c3c2F)n1 [Example 110]
> 25	Cc1nc(COc2ncccn2)sc1-c1cccc(-c2ccc3[nH]c(=O)oc3c2)n1 [Example 117]
0.028	Cc1nc(COc2nccc(C(=O)O)n2)sc1-c1cccc(-c2cc(F)c3nn[nH]c3c2)n1 [Example 118]
1.5	Cc1nc(COc2ccccn2)sc1-c1cccc(-c2cc(O)c(C#N)c(F)c2)n1 [Example 120]
3.3	Cc1nc(COc2ccccn2)sc1-c1cccc(-c2cc(F)c(O)c(C#N)c2)n1 [Example 121]
0.033	COC(=O)NCc1nc(C)c(-c2cccc(-c3cc(F)c4nn[nH]c4c3F)n2)s1 [Example 122]
6.7	Cc1nc(COc2ncccn2)sc1-c1cccc(-c2ccc3[nH]c(=O)[nH]c3c2)n1 [Example 128]
8.1	Cc1nc(COc2ncccn2)sc1-c1cccc(-c2ccc3c(c2)C(=O)NC3=O)n1 [Example 132]
4.4	Cc1nc(COc2ncccn2)sc1-c1cccc(-c2cc(F)c(O)c(F)c2C)n1 [Example 133]
> 25	Cc1nc(COc2ncccn2)sc1-c1cccc(-c2ccc([N+](=O)[O-])c(F)c2)n1 [Example 134]
4.5	Cc1nc(COc2ncccn2)sc1-c1cccc(-c2ccn3c(O)nnc3c2)n1 [Example 149]
> 99	Cc1nc(COc2ncccn2)sc1-c1cccc(-c2cc(F)c3nnn(C)c3c2)n1 [Example 150]
> 25	Cc1nc(COc2ncccn2)sc1-c1cccc(-c2ccc(-c3n[nH]c(=O)o3)cc2)n1 [Example 161]
> 25	Cc1nc(COc2ncccn2)sc1-c1cccc(-c2ccc(-n3cn[nH]c3=O)cc2)n1 [Example 162]
5.2	Cc1nc(COc2ccccn2)sc1-c1csc(-c2cc(F)c(O)c(F)c2)c1 [Example 198]
6.5	Cc1nc(COc2ccccn2)sc1-c1cccc(-c2cc(F)c(O)c(F)c2)n1 [Example 199]
3.3	Cc1nc(C)c(-c2cccc(-c3ccc(C(=O)NS(=O)(=O)c4ccccc4)cc3)n2)s1 [Example 209]
7.5	Cc1nc(Cc2ccccn2)sc1-c1cccc(-c2ccc(C(=O)NS(C)(=O)=O)cc2)c1 [Example 210]
2.6	Cc1nc(COc2ncccn2)sc1-c1cccc(-c2ccc3oc(=O)[nH]c3c2)n1 [Example 212]
0.058	Cc1nc(COCC(C)(C)O)sc1-c1cccc(-c2cc(F)c3nn[nH]c3c2)n1 [Example 219]
0.027	Cc1nc(COc2ncccn2)sc1-c1ccnc(-c2cc(F)c3nn[nH]c3c2F)n1 [Example 220]
0.17	Cc1nc(COCCN(C)C)sc1-c1cccc(-c2cc(F)c3nn[nH]c3c2F)n1 [Example 221]
